Assay results: PMC6007898, “Methyl dihydrojasmonate and lilial are the constituents with an "off-label" insect repellence in perfumes” (PLoS ONE, 2018)

Target: T1, CquiOR136/CquiOrco (Culex quinquefasciatus, UniProt A0A0A0QKD4)
T1 construct: odorant receptor co-expressed with its co-receptor Orco in Xenopus oocytes; with Odorant receptor coreceptor
T1 sequence (A0A0A0QKD4 1-436): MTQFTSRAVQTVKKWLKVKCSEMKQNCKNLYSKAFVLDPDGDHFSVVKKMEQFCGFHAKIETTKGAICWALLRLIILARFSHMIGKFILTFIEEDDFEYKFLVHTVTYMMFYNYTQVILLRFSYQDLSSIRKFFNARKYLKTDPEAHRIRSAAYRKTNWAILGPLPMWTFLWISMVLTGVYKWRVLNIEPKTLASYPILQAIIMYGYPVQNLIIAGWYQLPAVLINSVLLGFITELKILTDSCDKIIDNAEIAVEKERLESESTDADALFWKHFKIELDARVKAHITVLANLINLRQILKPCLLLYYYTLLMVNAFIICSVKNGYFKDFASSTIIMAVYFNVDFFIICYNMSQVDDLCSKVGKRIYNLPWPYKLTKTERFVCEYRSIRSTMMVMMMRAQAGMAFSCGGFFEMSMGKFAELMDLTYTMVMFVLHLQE
Assay: two-electrode voltage clamp, Xenopus oocytes
Format: cell-based
Conditions: holding potential -80 mV, CquiOrco co-expressed, agonist
Description: All compounds were tested at the same dose

CCCCCC1C(=O)CCC1CC(=O)OC (mixture of isomers) [MDJ, methyl 2-(3-oxo-2-pentylcyclopentyl)acetate]
current at 1 mM: The currents elicited by methyl dihydrojasmonate were significantly higher than those elicited by lilial

CC(C=O)Cc1ccc(C(C)(C)C)cc1 (centres unmarked) [lilial]
current at 1 mM: both compounds were somewhat strong repellents, they activated CquiOR136 differently
